Format in all cases: cell-based
One series concerns HIV-1IIIB. Put plainly: Time of compound addition in HeLa-CD4-LTR-β-Gal cells. As to conditions: time of compound addition relative to virus addition. How it is done:
HeLa-CD4-LTR-β-Gal cells are seeded at a density of 1×10^4 cells/well in a volume of 100 μL 24 hours prior to assay initiation and incubated at 37° C./5% CO2. Following the incubation compound is serially diluted at the specified concentrations and were added to the cells in triplicate at timepoints of −30 minutes, 0, 1, 2, 4, 8 and 24 hours pre- or post-virus addition in a volume of 100 μL. HIV-1IIIB is added to the cells at a pre-determined titer. The cultures are incubated at 37° C./5% CO2 for 48 hours at which time efficacy is evaluated using a chemiluminescent substrate (Gal-Screen™, ThermoFisher Scientific, Waltham, Mass.) and toxicity (three timepoints of 0, 4 and 24 hours) evaluated using the tetrazolium dye XTT.

The subject of a further series is Ca Ski (Cervical) cells. Put plainly: Toxicity to Ca Ski cells (XTT). As to conditions: exposure 24 h. How it is done:
(§1) TC50 values for the test materials are derived by measuring the reduction of the tetrazolium dye XTT (2,3-bis(2-methoxy-4-nitro-5-sulfophenyl)-5-[(phenylamino)carbonyl]-2H-tetrazolium hydroxide). XTT in metabolically active cells is metabolized by the mitochondrial enzyme Nicotinamide adenine dinucleotide phosphate oxidase (“NADPH”) to a soluble formazan product. XTT solution is prepared daily as a stock of 1 mg/ml in RPMI-1640 without additives. Phenazine methosulfate (PMS) solution is prepared at 0.15 mg/ml in DPBS and stored in the dark at −20° C. XTT/PMS stock is prepared immediately before use by adding 40 μL of PMS per ml of XTT solution. […] of XTT/PMS is added to each well of the plate and the plate incubated for 4 hours at 37° C. The 4 hour incubation has been empirically determined to be within the linear response range for XTT dye reduction with the indicated numbers of cells for each assay. The plates are sealed and inverted several times to mix the soluble formazan product and the plate is read at 450 nm (650 nm reference wavelength) with a Molecular Devices SpectraMax Plus 384 96 well plate format spectrophotometer.
(§2) Twenty-four hours prior to compound exposure, 100 μL of cells are plated at 5×10^4 cells per well in a flat-bottomed plate and. […] The plates are incubated at 5% CO2/37° C. for an additional 24 hours and then evaluated using XTT as described above.

A further series deals with ME180 (Cervical) cells. Put plainly: Toxicity to ME180 cells (XTT). As to conditions: exposure 24 h. The method, then:
as §1, §2
A general note: Formazan colour is commonly taken as a measure of viable cells.

Series [1] has as its system Vaginal Ectocervical Tissues. As to the kind of experiment: Toxicity to vaginal ectocervical tissue (MTT). As to conditions: exposure 24 h. The method, then:
On the day of the assay, the MatTek assay media is warmed and 900 μL added to each well of a 6-well plate. One hour prior to dosing, the epivaginal tissues are removed from the refrigerator and placed in the 6-well plate and the plate then incubated for 1 hour at 37° C./5% CO2. Following the incubation the media is removed from the 6 well plate and 900 μL of fresh media added. One-hundred microliters (100 μL) of each concentration is added in duplicate to the epivaginal tissue. The plate is then incubated for an additional 24 hours at 37° C./5% CO2. One hour prior to the end of the incubation, 1 mg/mL (3-(4,5-Dimethylthiazol-2-yl)-2,5-diphenyltetrazolium bromide (hereinafter, “MTT” available from Invitrogen of Carlsbad, Calif.) in DMEM is prepared. Fifteen minutes prior to the end of the incubation 300 μL of MTT is added to each well of a 24-well plate. Following the incubation, residual liquid is removed from the tissue and then gently rinsed two times with PBS. Each epivaginal tissue insert is then transferred to an individual well of the 24-well plate containing the MTT solution. The plate is then incubated for 3 hours at 37° C./5% CO2. […] The optical density of each sample is determined at 570 nm with a background of 650 nm. The % viability is determined to be 100×[OD(sample)/OD(negative control)]. […]

For `O=C1Nc2ccc(Cl)cc2[C@@](C#CC2CC2)(C(F)(F)F)O1` [Efavirenz], the “Time in which Antiviral Activity is Lost” value in the series on HIV-1IIIB is 4 to 8 h.
As to Nonoxynol-9 [Embodiment N-9], the figures for the toxic concentration (with Ca Ski (Cervical) cells; in the series with ME180 (Cervical) cells; in series [1]) were 36.31 µg/mL, 41.83 µg/mL and 100 to 1000 µg/mL, respectively.
